Laboratory results: patent US5968920A, “Compounds having a benzisoselen-azoline and -azine structure, method for preparing same and therapeutic uses thereof” (Oxis Isle of Man, Limited, priority 1994, dated 1999)

Legend:
endothelial cells [1] = test: Absence of toxicity in a culture of endothelial cells in vitro (MTT); type: cell-based, human; conditions: no more than 10 μM, 24 or 48 hours
Experimental: Human endothelial cells were cultivated under the same conditions as those described for Example 18, in 96-hole plates.
When the cells were near confluence, they were incubated or not (control) for 24 or 48 hours in the presence of BXT-51056 or BXT-51072 incorporated into the culture medium at a concentration of no more than 10 μM. After 24 or 48 hours, the cells were rinsed three times with a PBS buffer and the viability of the cells was measured using the bromide of 3-(4,5-dimethylthiazol-2-yl)-2,5-diphenyl-2H-tetrazolium (MTT).

endothelial cells [2] = test: Protection of endothelial cells against hydrogen peroxide (NO production after bradykinin); type: cell-based; conditions: Homo sapiens, Endothelial cell; compound 1 μM; hydrogen peroxide 100 μM; bradykinin 100 nM; read-out: recovery of the normal response to bradykinin (NO production)
Experimental: (§1) Human endothelial cells were cultivated at 37° C. in 6-hole plates or Petri dishes (35 mm diameter) in an atmosphere of saturated humidity constituted by a gaseous mixture of 95% air and 5% of CO2. The culture medium was constituted by a M 199 medium, pH=7.4, containing 20% of foetal calf serum, 2 mM of L-glutamine, 100 U/ml of penicillin and 100 μg/ml of streptomycin.
When the cells were confluent, they were incubated in the presence or absence (control) of a compound with general structure I in culture medium at a concentration of between 1 and 10 μM, all other conditions being the same. After washing the cells three successive times with a PBS buffer, they were incubated in the presence or absence (control) of hydrogen peroxide, 500 or 100 μM, in the reaction medium. The cells were then washed three times with PBS buffer. They were then stained using the May-Grunwald/Giemsa procedure which caused the nucleus to stain purple and the cytoplasm, light violet, or they were used to measure their ability to produce nitric oxide NO. (EDRF). The production of NO. by endothelial cells was made using a NO. electrode, after stimulation with bradykinin, 100 nM, using the procedure described by H. Tsukahara et al., (Biochem. and Biophys. Res. Comm., (1993), 193, pp 722-729).
Treatment with 100 μM hydrogen peroxide had no significant effect on cellular density. […]

[3] = Glutathione peroxidase activity, hydrogen peroxide; type: biochemical; conditions: compound 20 μM, pH = 7.3, 37° C., [GSH] = 2 mM
Experimental: (§2) To 1.5 ml of HEPES buffer, 50 mM, pH=7.3, containing 0.2 mM of DTPA, 0.144 mM of NADPH, 2.2 mM of reduced glutathione and 1.1 U/ml of glutathione disulfide reductase, pre-equilibrated for 2 minutes at 37° C., 100 μl of an ethanolic mother solution of the compound to be tested or 100 μl of absolute ethanol (blank) was added. Each compound was tested at a final concentration of 20 μM.
(§3) Subsequently, 50 μl of the following was added:
or hydrogen peroxide (H2 O2), 1.6 mM in ultrapure water;
(§4) or the hydroperoxide of linoleic acid (18:2-OOH) prepared using soya lipoxygenase (see M. O. Funk et al., Lipids, (1976), 11, pp 113-117), 3.3 mM in a water/methanol mixture, 85/15 (V/V). The glutathione peroxidase activity was measured at 37° C. by measuring the reduction in absorbance at 340 nm over 5 minutes. The initial enzymatic rate or activity was proportional to the slope of the plot of absorbance against time.
(§5) They are expressed in nmoles of hydroperoxide reduced per minute.

[4] = Glutathione peroxidase activity, linoleic acid hydroperoxide; type: biochemical; conditions: compound 20 μM, pH = 7.3, 37° C., [GSH] = 2 mM
Experimental: as §2, §3, §4, §5

[5] = Glutathione peroxidase activity, t-BuOOH as hydroperoxide; type: biochemical; conditions: compound 20 μM, pH = 7.3, 37° C., [GSH] = 2 mM
Experimental: as §2, §3
tertiobutyl hydroperoxide (t-BuOOH), 6.6 mM in ultrapure water;
as §4, §5

endothelial cells [6] = test: Viability of endothelial cells subjected to linoleic acid hydroperoxide (MTT); type: cell-based, human; conditions: compound 4 μM, 1 h; 18:2-OOH 50 μM, 2 h; MTT after about twenty hours
Experimental: as §1, with “multi-hole” for “6-hole”, “dishes” for “dishes (35 mm diameter)”, “penicillin,” for “penicillin and”, “streptomycin and 1% by volume of a medium supplement containing heparin and a cell growth factor.” for “streptomycin.”
When the cells were near confluence, they were incubated for one hour in the presence or absence of one of the following compounds: BXT-51056, BXT-51072, BXT-51077, or ebelsen. Each of these compounds was incorporated at 4 μM into culture medium containing 2% of foetal calf serum, all other conditions being the same.
After washing the cells three successive times with a PBS buffer, they were incubated in the presence or absence (control) of linoleic acid hydroperoxide (18:2-OOH), 50 μM, in the culture medium defined above. […] After about twenty hours, the viability of the cells was determined by measurement using the bromide of 3-(4,5-dimethylthiazol-2-yl)-2,5-diphenyl-2H-tetrazolium (MTT).
The results are shown in FIG. 1, expressed as the survival percentage with respect to the control and where the reference is shown by the black rectangle.

interleukin 8 (IL-8) = test: Endothelial production of interleukin 8 induced by TNF-α; type: cell-based, human; conditions: 4 h
Experimental: (§6) Human endothelial cells were cultivated under the same conditions as those described for Example 18.
When the cells were near confluence, they were incubated for one hour in the presence or absence of the following compounds: BXT-51072, BXT-51077 or ebselen. Each of these compounds was incorporated into culture medium containing 2% of foetal calf serum at 10 μM, all other conditions being the same. […] After four hours of incubation, the interleukin 8 (IL-8) in the culture medium was measured.

[7] = test system: von Willebrandt factor (vWf); test: Protection of endothelial cells against interleukin 1 (von Willebrandt factor release); type: cell-based; conditions: Homo sapiens, Endothelial cell, 4 h, read-out: inhibition of increase in vWf liberation induced by IL-1
Experimental: as §6
When the cells were near confluence, they were incubated for one hour in the presence or absence of the following compounds: BXT-51072, BXT-51077, each of these compounds being at 10 μM in culture medium containing 2% of foetal calf serum , all other conditions being the same. The cells were then washed three times with a PBS buffer. The cells which had not been pretreated by a compound were incubated in the presence or absence (control) of interleukin 1α (IL-1α), at 50 U/ml, in the same culture medium. […] After four hours of incubation, the von Willebrandt factor (vWf) in the culture medium was measured.

endothelial cells [8] = test: Adhesion of PMN to endothelial cells induced by TNF-α (myeloperoxidase); type: cell-based, human; conditions: compound 10 μM vs pentoxifylline 50 μM; TNF-α 1 ng/ml
Experimental: as §6
(§7) When the cells were near confluence, they were incubated for one hour in the presence or absence of the following compounds: BXT-51072, BXT-51077 or pentoxifylline. Compounds BXT-51072 and BXT-51077, each at 10 μM, and the pentoxifylline, at 50 μM, were incorporated in culture medium containing 2% of foetal calf serum, all other conditions being the same. […] Myeloperoxidase (MPO), an enzyme specifically contained in PMNs, was then measured in the cell lysates obtained to evaluate adhesion of the PMNs on the endothelial cells. The von Willebrandt factor (vWf) liberated in the culture medium by the endothelial cells was measured after three and a half hours of incubation, as a label of the changes in the cells.
(§8) Incubation of the endothelial cells in the presence of PMN and TNF-α led to a very significant increase in the quantity of MPO and vWf with respect to the respective controls (PMN alone, and endothelial cells alone respectively), meaning the adhesion of activated PMNs to the endothelial cells and changes in the latter.
(§9) They are expressed as the percentage inhibition by referring the MPO and vWf measurements to the respective concentrations of MPO and vWf determined when the endothelial cells were incubated with TNF-α and PMNs.

endothelial cells [9] = test: Endothelial changes induced by PMN and TNF-α (von Willebrandt factor release); type: cell-based, human; conditions: BXT compounds 10 μM, pentoxifylline 50 μM; TNF-α 1 ng/ml; 3.5 h
Experimental: as §6, §7, §8, §9

[10] = prior art, Wendel 1984; Mercurio and Combs 1986; cited from earlier work
[11] = in the presence of excess glutathione GSH; cited from earlier work

With CC1(C)N[Se]c2ccccc21 [BXT-51056, 3,3-dimethyl-benzisoselenazoline] the “toxicity to endothelial cells” value (endothelial cells [1]) was “not toxic to endothelial cells” and the activity at 1 µM (endothelial cells [2]) was greater than 80%.

For CC1(C)N[Se](=O)c2ccccc21 (centres unmarked) [BXT-51059], the “Glutathione peroxidase activity, H2 O2” value [3] was 0.1 nmoles of hydroperoxide reduced/min, the “Glutathione peroxidase activity, 18:2-OOH” value [4] was 0.8 nmoles of hydroperoxide reduced/min and the “Glutathione peroxidase activity, t--BuOOH” value [5] was 0.2 nmoles of hydroperoxide reduced/min.

In the case of CC1(C)N[Se]c2ccc([N+](=O)[O-])cc21 [BXT-51075, 3,3'-dimethyl-5-nitro-benzisoselenazoline], the “Glutathione peroxidase activity, H2 O2” value [3] is reported as 5,9 nmoles of hydroperoxide reduced/min and the “Glutathione peroxidase activity, t--BuOOH” value [5] is reported as 3,2 nmoles of hydroperoxide reduced/min.

In the case of COc1ccc2c(c1)C(C)(C)CN[Se]2 [BXT-51077, 4,4-dimethyl-6-methoxy-benzisoselenazine], the “protection of the cells from death induced by 18:2-OOH” value (endothelial cells [6]) is reported as “significantly protected the cells from death”, the inhibition at 10 µM (interleukin 8 (IL-8); Homo sapiens, read-out: inhibition of IL-8 production induced by TNF-α) is reported as no less than 70% and the inhibition at 10 µM [7] is reported as greater than 70%. The “inhibition of the adhesion of PMN induced by TNF-α (MPO)” value (endothelial cells [8]) was “inhibit the adhesion of PMN induced by TNF-α, much more effectively than pentoxifylline”, the “protection of endothelial cells against the deleterious effects of activated PMNs (vWf)” value (endothelial cells [9]) was “protect endothelial cells against the deleterious effects of activated PMNs” and the “Glutathione peroxidase activity, t--BuOOH” value [5] was 35.4 nmoles of hydroperoxide reduced/min.

In the case of CCN1CC(C)(C)c2ccccc2[Se]1 [BXT-51078, 4,4-dimethyl-2-ethyl-benzisoselenazine], the “Glutathione peroxidase activity, t--BuOOH” value [5] is reported as 16.5 nmoles of hydroperoxide reduced/min.

In the case of O=c1c2ccccc2[se]n1-c1ccccc1 [ebselen, 2-phenyl-3-one-benzisoselenazoline(2H)], the “inhibition of IL-8 production induced by TNF-α (in words)” value (interleukin 8 (IL-8); compound 10 μM, TNF-α 0.1, 1 or 10 ng/ml) is listed as “no inhibiting effect”, the toxic effect [10] is listed as “do not appear to have a major toxic effect” and the “water solubility of the derivative produced with excess glutathione GSH” value [11] is listed as “only very slightly soluble in water”.
